What was measured:
H9c2 cells = assay: Mitochondrial membrane potential, JC-1 red to green fluorescence; assay type: cell-based, rat
Method: (§1) FIGS. 3A-3H. […] FIGS. 3A-3B. […] FIG. 3A. […] FIG. 3B. […] FIGS. 3C-3D. […] FIG. 3D. […] FIGS. 3E-3F. […] FIG. 3E. Representative blots are shown. […] FIG. 3F. […] FIG. 3G. […] FIG. 3H.
The cells were then washed once with PBS, placed back in the DMEM experimental medium, and incubated with the indicated drugs for 30 min. At the end of the incubation period, nuclei of both the MitoSOX Red- and JC-1-treated cells were stained with […] 4′,6-diamidino-2-phenyl-indole (DAPI) for 3 min, washed once with PBS, and returned to the DMEM experimental medium. The cover slips were removed from the wells, mounted in the DMEM experimental medium, and red (MitoSOX Red and JC-1 aggregates), green (JC-1 monomers), and blue (DAPI) fluorescence intensity was assessed using a Keyence BZ-X700 fluorescence microscope at the following paired excitation/emission wavelengths, respectively: 560/630, 490/525, and 360/460 nm.
Increased mitochondrial O2·^− by rotenone would be expected to reduce the mitochondrial membrane potential (ΔΨm), due in part to activation of uncoupling proteins^39. […] Rotenone caused an almost complete loss of red fluorescence and a striking increase in green fluorescence in the cells, indicating a marked decrease in ΔΨm (FIGS. 3C-3D).

[1] = tested on: Jun N-terminal kinase (JNK) phosphorylation in H9c2 cells; assay: H2O2-induced JNK phosphorylation, immunoblotting; assay type: cell-based, rat
Text: as §1

[2] = physiological conditions; 50 mM potassium phosphate pH 7.4, three-fold molar excess of reductant
Method: H9c2 cells were incubated for 30 min with vehicle, 2.5 μM cobinamide, or 5 μM rotenone, the latter in the absence or presence of 2.5 μM cobinamide, imisopasem, MnTBAP, or cobalamin; 5 μM MitoSOX was added during the last 10 min. The cells were incubated with 1 mg/ml DAPI for 3 min to counterstain nuclei, and then visualized under a fluorescence microscope. […] Equal-sized representative areas for each condition are shown for MitoSOX staining (red fluorescence) and the same area showing merged MitoSOX and DAPI staining. […] The amount of red fluorescence was quantified by Image J analysis. Data are the mean±SD of three independent experiments; in each experiment two separate equal-sized areas were analyzed containing ˜75 cells per area. […] H9c2 cells were incubated for 10 min with 10 μM JC-1, washed once with PBS, and then incubated for 30 min with vehicle, 2.5 μM cobinamide, or 5 μM rotenone in the absence or presence of 2.5 μM of the indicated drugs as described in Panels A, B. FIG. 3C. Cells were visualized under a fluorescence microscope and equal-sized representative areas of each condition are shown, with red and green fluorescence shown for the same area. […] The amount of red and green fluorescence was quantified by Image J analysis and the red to green ratio was calculated. The slides were analyzed by an operator who was blinded to the specific conditions. Data are the mean±SD of three independent experiments; in each experiment two separate equal-sized areas were analyzed containing ˜75 cells per area. […] Blots from four independent experiments were analyzed by densitometric scanning (Li-Cor Odyssey software) in a range where band intensity was linear. The ratio of the pJNK band to GAPDH was calculated, and the results normalized to control untreated cells. […] The UV-visible spectrum of Chi(III) in 50 mM potassium phosphate buffer, pH 7.4 was recorded before (black line) and immediately after adding a three-fold molar excess of ascorbate (blue line), cysteine (teal line), or reduced glutathione (GSH, pink line). […]

[3] = Reaction with hydrogen peroxide, H2O2-specific electrode; assay type: biochemical
Method: FIGS. 2A-2F. Cobinamide Functions as a Catalase Mimetic and Reacts with Peroxynitrite. […]. Hydrogen peroxide (final concentration 50 μM) was added to solutions containing increasing concentrations of Chi(III) (FIG. 2A) or Chi(II) (FIG. 2C), and the H2O2 concentration was measured over time using a H2O2-specific electrode. The log of the velocity in the presence of Chi(III) (FIG. 2B) or Chi(II) (v) (FIG. 2D) over the velocity in their absence (Vo) is plotted against the log of their concentrations at 20 min over their concentrations at zero time. These plots yield a reaction order with respect to Chi(III) and Cbi(II) of 0.7. The experiments were repeated three times with similar results. Dotted lines show 95% confidence intervals. FIG. 2E. […] The Chi(III) spectra are slightly different from those shown in FIG. 1G because at pH 11, dihydroxo-cobinamide is generated, whereas at pH 7.1, aquohydroxo-cobinamide is the predominant species. The spectra of aquohydroxo- and dihydroxo-cobinamide are known to be different^65. FIG. 2F. Varying concentrations of Chi(II) from 1 to 10 μM were mixed with 10 μM peroxynitrite in a stopped-flow instrument, and absorption at 315 nm was monitored for 0.5 sec. The results for 5 μM Cbi(II) are shown; red circles are the observed data, and the black line is a two-phase non-linear regression curve generated by Prism 7.04 software. […] The experiment was repeated three times with similar results. Dotted lines show 95% confidence intervals.
Table I. Reaction Rates of Cobinamide (Cbi), Cobalamin, Imisopasem, and MnTBAP with Reactive Oxygen and Nitrogen Species. Reactions of the indicated compounds with O2·^−, ONOO^−, and ·NO are all second order reactions with rate constants in units of M^−1 s^−1. The reactions of Cbi(III) and Cbi(II) with H2O2 are third order with rate constant units of M^−2 s^−1. Chi(II) and cobalamin(II) bind nitric oxide, so a Ka is shown in units of M^−1. For the new data presented in this study, rate constants were measured for O2·^− using a hypoxanthine-xanthine oxidase-cytochrome c system, for H2O2 using a H2O2-specific sensor (World Precision Instruments), and for ONOO^− using a stopped-flow instrument. Published rate constants for Cu/Zn and Mn superoxide dismutases (SOD) and catalase are shown for reference.^a,b Letters and numbers in parenthesis refer to footnotes and references, respectively.
Both Cbi(III) and Chi(II) react with H2O2, and the reaction was essentially first order with respect to Cbi(III) and Cbi(II) (FIG. 2A-D), and second order with respect to H2O2 for both cobinamide species. […]

[4] = tested on: streptozotocin diabetic mice; assay: Fasting blood glucose and intraperitoneal glucose tolerance test; assay type: in vivo; details: fasting blood glucose and IPGTT after three months
Text: (§2) The water was replenished twice a week.
(§3) Over the three-month treatment period, the non-diabetic mice gained an average of 4.1±0.8 g. while the diabetic mice lost an average of 0.3 g, with wide variation in weight change among the latter mice.

[5] = mouse, in vivo
Method: Male C57BL/6NHsd mice (20 weeks old) were housed three to four animals per cage in a temperature-controlled environment with a 12-h light/dark cycle and fed standard rodent chow with ad libitum access to food and water. After one week of acclimatization, mice weighing 30±3 g were injected intraperitoneally for five consecutive days with either saline (n=20) or 50 mg/kg streptozotocin (n=20) 69. […] The 16 diabetic mice and a corresponding number of the saline-injected, non-diabetic mice were split randomly in half to receive either plain drinking water or histidyl-cobinamide in the drinking water. The four groups of animals are referred to as: diabetic vehicle (D-Veh); diabetic, cobinamide-treated (D-Cbi); non-diabetic, vehicle (ND-Veh); and non-diabetic, cobinamide-treated (ND-Cbi). The histidyl-cobinamide concentration was 1 mM for the ND-Cbi mice, but because the diabetic mice drank more than the non-diabetic mice, the cobinamide concentration for the D-Cbi mice was decreased accordingly. The water was replenished twice a week.
After three months of treatment, the mice were weighed, fasted for 6 h, and then underwent an intraperitoneal glucose tolerance test (IPGTT) using 2 g/kg of a 20% glucose solution. Blood glucose concentrations were measured just before the glucose injection (time 0, fasting specimen) and at 15, 30, 60, and 120 min following the injection. […] Two days later, the mice were euthanized by inducing deep anesthesia with 200 mg/kg ketamine and 40 mg/kg xylazine administered by intraperitoneal injection, followed by exsanguination via an open cardiac puncture.
Type I diabetic mice were generated using streptozotocin, and then provided cobinamide in the drinking water for three months.

[6] = mouse, in vivo; remark: listed apart in the source
Method: It seemed possible, therefore, that the cobinamide administered to the mice could have increased their blood pressure, since ·NO is a potent vasodilator. Because diabetes can increase blood pressure, these studies were performed on a parallel set of non-diabetic mice of the same strain and sex and using the same concentration of histidyl-cobinamide in the drinking water as in the above-described studies.

[7] = Tolerability in non-diabetic and streptozotocin-diabetic mice (weight, liver and renal function); assay type: in vivo
Text: as §2, §3

C/C1=C2/[N-][C@H]([C@H](CC(N)=O)[C@@]2(C)CCC(=O)NC[C@@H](C)O)[C@]2(C)N=C(/C(C)=C3N=C(/C=C4N=C1[C@@H](CCC(N)=O)C\4(C)C)[C@@H](CCC(N)=O)[C@]\3(C)CC(N)=O)[C@@H](CCC(N)=O)[C@]2(C)CC(N)=O.[Co+3] [cobinamide, aquohydroxo-cobinamide]
JC-1 red to green fluorescence ratio (ΔΨm) in rotenone-treated cells (H9c2 cells; H9c2, 5 μM rotenone 30 min, drugs at 2.5 μM): restored the ratio of red to green fluorescence | JC-1 red to green fluorescence ratio, drug alone (H9c2 cells; H9c2, vehicle-treated cells without rotenone, 2.5 μM): no change | JNK phosphorylation in H2O2-treated cells ([1]; H9c2, 100 μM H2O2 30 min, drugs at 100 μM): reduced JNK phosphorylation to a level that was indistinguishable from vehicle-treated cells | JNK phosphorylation or total cellular JNK in the absence of H2O2 ([1]; H9c2, drug alone): neither Cbi(III), Cbi(II) nor the other three drugs affected JNK phosphorylation | Reduction by ascorbate, cysteine and reduced glutathione (GSH) [2]: readily reduced to Cbi(II) | Reaction order with respect to the cobinamide species in the reaction with H2O2 ([3]; 50 μM H2O2): 0.7 | Apparent rate constant, reaction with hydrogen peroxide (H2O2) ([3]; third order, H2O2-specific sensor, new data of this study, listed as Cbi(III)): 8.0 × 10^2 M^−2 s^−1 | Glucose intolerance versus mice not receiving drug [4]: same degree of glucose intolerance | Plasma cobinamide concentration, diabetic mice [5]: 0.55 ± 0.36 µM | Plasma cobinamide concentration, non-diabetic mice [5]: 0.11 ± 0.07 µM | Blood pressure [6]: no change in blood pressure | Average weight gain of cobinamide-treated diabetic mice ([7]; mouse, in vivo): 0.63 g | Effect on weight ([7]; mouse, in vivo): did not significantly affect weight | Liver function and renal function tests ([7]; mouse, in vivo): no effect | Tolerability ([7]; non-diabetic and diabetic mice, three months in drinking water): well tolerated

— patent US20260069606A1, “Oxidative Stress and Diabetes Treatment with Cobinamide” (The Regents of the University of California, priority 2022, published 2026)
